Columns and labels:
Phase I = assay type: in vivo, human; details: for T lag / Tmax: median, [range]; for Tmax: human, in vivo, T max
advanced solid tumors = experiment: Phase I; assay type: in vivo, human; details: for PFS, single patient: 500 mg once daily
[1] = tested on: patients with advanced solid tumors; details: first-in-man trial outside of Japan; cited from earlier work
[2] = tested on: Japanese patients with advanced solid tumors; experiment: Phase I dose escalation; details: for Patients with TEAE leading to death: primary reason for death was disease progression

## CN1CCC(COc2cnc(-c3cccc(Cn4nc(-c5cccc(C#N)c5)ccc4=O)c3)nc2)CC1 [Tepotinib]
Phase I; 500 mg once daily
  Caverage at steady state, all patients: > 700 ng/mL
Phase I; Day 1, 215 mg once daily (n = 3)
  T lag: 1.95 [1.95–1.97] h
Phase I; Day 1, 300 mg once daily (n = 3)
  T lag: 0.97 [0.97–2.00] h
Phase I; Day 1, 500 mg once daily (n = 6)
  T lag: 0.99 [0.47–1.98] h
Phase I; after the first and multiple oral doses, 215–500 mg
  dose proportionality of exposure (Cmax, AUC0–t): less than dose proportional
Phase I; 215 mg, Day 1, 215 mg once daily (n = 3)
  Tmax: 8 h
Phase I; 215 mg, Day 14, 215 mg once daily (n = 3)
  Tmax: 8 h
Phase I; 300 mg, Day 1, 300 mg once daily (n = 3)
  Tmax: 8 h
Phase I; 300 mg, Day 14, 300 mg once daily (n = 3)
  Tmax: 9.9 h
Phase I; 500 mg, Day 1, 500 mg once daily (n = 6)
  Tmax: 10 h
Phase I; 500 mg, Day 14, 500 mg once daily (n = 5)
  Tmax: 4.1 h
Phase I; individual patients
  trough concentrations between cycles 1 and 4: remained stable
Advanced solid tumors; all patients (n = 12), 90% CI
  median PFS: 1.38 (90% CI: 1.15–1.38) months
Advanced solid tumors; nine of 12 patients overall
  patients with BOR of disease progression: 75%
Advanced solid tumors; of 12 patients, both treated with 500 mg once daily
  patients with BOR of stable disease (SD) ≥12 weeks: 16.7%
Advanced solid tumors; patient with urachal cancer (MET status not evaluable)
  PFS, single patient: 12.9 months
Advanced solid tumors; patient, MET-expressing (IHC 2+) gastric cancer, four prior lines of chemotherapy
  PFS, single patient: 4.6 months
[1]
  dose up to which monotherapy was generally well tolerated: ≤ 1400 mg once daily
  maximum tolerated dose (MTD): could not be established
[2]; 215 mg once daily (n = 3)
  Patients with TEAE leading to treatment discontinuation: 0 n (%)
  Patients with any TEAE: 2 n (%)
  Patients with any grade ≥3 TEAE: 0 n (%)
  Patients with any related grade ≥3 TEAE: 0 n (%)
  Patients with any related serious TEAE: 0 n (%)
  Patients with any serious TEAE: 0 n (%)
  Patients with any treatment-related TEAE: 1 n (%)
  Patients with related TEAE leading to death: 0 n (%)
  Patients with related TEAE of special interest (lipase or amylase elevation of grade ≥3): 0 n (%)
  Tepotinib-related TEAE, Grade 3/4: Hyponatremia (grade 3): 0 n (%)
  Tepotinib-related TEAE, Grade 3/4: Lipase increase (grade 4): 0 n (%)
  Tepotinib-related TEAE, any grade: Acneiform dermatitis: 0 n (%)
  Tepotinib-related TEAE, any grade: Amylase increase: 0 n (%)
  Tepotinib-related TEAE, any grade: Decreased appetite: 1 n (%)
  Tepotinib-related TEAE, any grade: Dysgeusia: 1 n (%)
  Tepotinib-related TEAE, any grade: Fatigue: 1 n (%)
  Tepotinib-related TEAE, any grade: Hypoalbuminemia: 0 n (%)
  Tepotinib-related TEAE, any grade: Hyponatremia: 0 n (%)
  Tepotinib-related TEAE, any grade: Lipase increase: 0 n (%)
  Tepotinib-related TEAE, any grade: Nausea: 0 n (%)
  Tepotinib-related TEAE, any grade: Serum creatinine increase: 0 n (%)
  Tepotinib-related TEAE, any grade: Stomatitis: 0 n (%)
  Tepotinib-related TEAE, any grade: Vomiting: 0 n (%)
  Patients with TEAE leading to death: 0 n (%)
[2]; 300 mg once daily (n = 3)
  Patients with TEAE leading to treatment discontinuation: 0 n (%)
  Patients with any TEAE: 3 n (%)
  Patients with any grade ≥3 TEAE: 3 n (%)
  Patients with any related grade ≥3 TEAE: 0 n (%)
  Patients with any related serious TEAE: 0 n (%)
  Patients with any serious TEAE: 3 n (%)
  Patients with any treatment-related TEAE: 1 n (%)
  Patients with related TEAE leading to death: 0 n (%)
  Patients with related TEAE of special interest (lipase or amylase elevation of grade ≥3): 0 n (%)
  Tepotinib-related TEAE, Grade 3/4: Hyponatremia (grade 3): 0 n (%)
  Tepotinib-related TEAE, Grade 3/4: Lipase increase (grade 4): 0 n (%)
  Tepotinib-related TEAE, any grade: Acneiform dermatitis: 0 n (%)
  Tepotinib-related TEAE, any grade: Amylase increase: 0 n (%)
  Tepotinib-related TEAE, any grade: Decreased appetite: 0 n (%)
  Tepotinib-related TEAE, any grade: Dysgeusia: 0 n (%)
  Tepotinib-related TEAE, any grade: Fatigue: 1 n (%)
  Tepotinib-related TEAE, any grade: Hypoalbuminemia: 0 n (%)
  Tepotinib-related TEAE, any grade: Hyponatremia: 0 n (%)
  Tepotinib-related TEAE, any grade: Lipase increase: 0 n (%)
  Tepotinib-related TEAE, any grade: Nausea: 0 n (%)
  Tepotinib-related TEAE, any grade: Serum creatinine increase: 0 n (%)
  Tepotinib-related TEAE, any grade: Stomatitis: 0 n (%)
  Tepotinib-related TEAE, any grade: Vomiting: 0 n (%)
  Patients with TEAE leading to death: 0 n (%)
[2]; 500 mg once daily (n = 6)
  Patients with TEAE leading to treatment discontinuation: 0 n (%)
  Patients with any TEAE: 6 n (%)
  Patients with any grade ≥3 TEAE: 4 n (%)
  Patients with any related grade ≥3 TEAE: 3 n (%)
  Patients with any related serious TEAE: 0 n (%)
  Patients with any serious TEAE: 1 n (%)
  Patients with any treatment-related TEAE: 3 n (%)
  Patients with related TEAE leading to death: 0 n (%)
  Patients with related TEAE of special interest (lipase or amylase elevation of grade ≥3): 2 n (%)
  Tepotinib-related TEAE, Grade 3/4: Hyponatremia (grade 3): 1 n (%)
  Tepotinib-related TEAE, Grade 3/4: Lipase increase (grade 4): 2 n (%)
  Tepotinib-related TEAE, any grade: Acneiform dermatitis: 1 n (%)
  Tepotinib-related TEAE, any grade: Amylase increase: 2 n (%)
  Tepotinib-related TEAE, any grade: Decreased appetite: 0 n (%)
  Tepotinib-related TEAE, any grade: Dysgeusia: 1 n (%)
  Tepotinib-related TEAE, any grade: Fatigue: 0 n (%)
  Tepotinib-related TEAE, any grade: Hypoalbuminemia: 2 n (%)
  Tepotinib-related TEAE, any grade: Hyponatremia: 1 n (%)
  Tepotinib-related TEAE, any grade: Lipase increase: 2 n (%)
  Tepotinib-related TEAE, any grade: Nausea: 1 n (%)
  Tepotinib-related TEAE, any grade: Serum creatinine increase: 1 n (%)
  Tepotinib-related TEAE, any grade: Stomatitis: 1 n (%)
  Tepotinib-related TEAE, any grade: Vomiting: 1 n (%)
  Patients with TEAE leading to death: 1 n (%)
[2]; 215, 300 and 500 mg once daily, cycle 1
  dose-limiting toxicities (DLTs): No DLTs
[2]; Total, all doses (n = 12)
  Patients with TEAE leading to treatment discontinuation: 0 n (%)
  Patients with any TEAE: 11 (91.7) n (%)
  Patients with any grade ≥3 TEAE: 7 (58.3) n (%)
  Patients with any related grade ≥3 TEAE: 3 (25.0) n (%)
  Patients with any related serious TEAE: 0 n (%)
  Patients with any serious TEAE: 4 (33.3) n (%)
  Patients with any treatment-related TEAE: 5 (41.7) n (%)
  Patients with related TEAE leading to death: 0 n (%)
  Patients with related TEAE of special interest (lipase or amylase elevation of grade ≥3): 2 (16.7) n (%)
  Tepotinib-related TEAE, Grade 3/4: Hyponatremia (grade 3): 1 (8.3) n (%)
  Tepotinib-related TEAE, Grade 3/4: Lipase increase (grade 4): 2 (16.7) n (%)
  Tepotinib-related TEAE, any grade: Acneiform dermatitis: 1 (8.3) n (%)
  Tepotinib-related TEAE, any grade: Amylase increase: 2 (16.7) n (%)
  Tepotinib-related TEAE, any grade: Decreased appetite: 1 (8.3) n (%)
  Tepotinib-related TEAE, any grade: Dysgeusia: 2 (16.7) n (%)
  Tepotinib-related TEAE, any grade: Fatigue: 2 (16.7) n (%)
  Tepotinib-related TEAE, any grade: Hypoalbuminemia: 2 (16.7) n (%)
  Tepotinib-related TEAE, any grade: Hyponatremia: 1 (8.3) n (%)
  Tepotinib-related TEAE, any grade: Lipase increase: 2 (16.7) n (%)
  Tepotinib-related TEAE, any grade: Nausea: 1 (8.3) n (%)
  Tepotinib-related TEAE, any grade: Serum creatinine increase: 1 (8.3) n (%)
  Tepotinib-related TEAE, any grade: Stomatitis: 1 (8.3) n (%)
  Tepotinib-related TEAE, any grade: Vomiting: 1 (8.3) n (%)
  Patients with TEAE leading to death: 1 (8.3) n (%)
[2]; all doses
  vital signs and other safety observations: No clinically relevant abnormalities
[2]; all doses (n = 12)
  patients with tepotinib-related TEAEs of any grade: 41.7%
